Patent US6670345B1 (Dabur Research Foundation, priority 1997, dated 2003)
In brackets after ≈: the same amount, converted by molar mass.

Tests used:
Conditions in all cases: 72 hours
leukemia cells (MOLT-4) = experiment: MTT cytotoxicity assay, leukemia cells (MOLT-4); type: cell-based, human
Procedure: (§1) After 72 hours, the assay was terminated and percent cyotoxicities calculated.

lymphoma cells (U937) = experiment: MTT cytotoxicity assay, lymphoma cells (U937); type: cell-based, human
Procedure: as §1

human prostate (DU145) = experiment: MTT cytotoxicity assay, human prostate (DU145); type: cell-based
Procedure: as §1

human colon (HT29) = experiment: MTT cytotoxicity assay, human colon (HT29); type: cell-based
Procedure: as §1

human larynx (HeP.2) = experiment: MTT cytotoxicity assay, human larynx (HeP.2); type: cell-based
Procedure: as §1

human lung (L132) = experiment: MTT cytotoxicity assay, human lung (L132); type: cell-based
Procedure: as §1

[1] = test system: ovarian cancer cells (PA-1); experiment: MTT cytotoxicity assay, ovarian cancer cells (PA-1); type: cell-based, human
Procedure: as §1

| SMILES | ED50 Leukemia MOLT-4 (leukemia cells (MOLT-4)) [µg/mL] | ED50 Lymphoma U937 (lymphoma cells (U937)) [µg/mL] | ED50 Prostate DU 145 (human prostate (DU145)) [µg/mL] | ED50 Colon HT-29 (human colon (HT29)) [µg/mL] | ED50 Larynx Hep. 2 (human larynx (HeP.2)) [µg/mL] | ED50 Lung L 132 (human lung (L132)) [µg/mL] | ED50 Ovary PA-I [1] [µg/mL] |
| --- | --- | --- | --- | --- | --- | --- | --- |
| C=C(C)C1CCC2(C(=O)OCC(=O)OC)CCC3(C)C(CCC4C5(C)CCC(NCCO)C(C)(C)C5CCC43C)C12 (centres unmarked) [Derivative 1027] | 2.0 (≈ 3.5 µM) | 4.5 (≈ 7.87 µM) | 5.7 (≈ 9.97 µM) | 7.2 (≈ 12.6 µM) | 4.2 (≈ 7.34 µM) | 7.0 (≈ 12.2 µM) | >4.0 |
| CC(C)C1CCC2(C(=O)O)CCC3(C)C(CCC4C5(C)CCC(OS(C)(=O)=O)C(C)(C)C5CCC43C)C12 (centres unmarked) [Derivative 789] | 2.0 (≈ 3.73 µM) | 1.4 (≈ 2.61 µM) | >10 | 1.4 (≈ 2.61 µM) | >10 | 6.5 (≈ 12.1 µM) | >4.0 |
| CC(C)C1CCC2(C(=O)O)CCC3(C)C(CCC4C5(C)CCC(OC(=O)c6ccccc6C(F)(F)F)C(C)(C)C5CCC43C)C12 (centres unmarked) [Derivative 943] | 1.6 (≈ 2.54 µM) | 3.2 (≈ 5.07 µM) | >4 | >10 | 2.0 (≈ 3.17 µM) | 4.0 (≈ 6.34 µM) | >4.0 |
| CC(C)C1CCC2(C(=O)O)CCC3(C)C(CCC4C5(C)CCC(OC(=O)c6cccc(C(F)(F)F)c6)C(C)(C)C5CCC43C)C12 (centres unmarked) [Derivative 940] | 0.4 (≈ 0.634 µM) | 0.8 (≈ 1.27 µM) | >4 | >10 | 5.4 (≈ 8.56 µM) | 2.6 (≈ 4.12 µM) | 3.8 (≈ 6.02 µM) |
| CC(C)C1CCC2(C(=O)OC(=O)C34CCC(C(C)C)C3C3CCC5C6(C)CC(Br)C(=O)C(C)(C)C6CCC5(C)C3(C)CC4)CCC3(C)C(CCC4C5(C)CC(Br)C(=O)C(C)(C)C5CCC43C)C12 (centres unmarked) [Derivative 1163] | 1.6 (≈ 1.52 µM) | 3.8 (≈ 3.61 µM) | 6.0 (≈ 5.7 µM) | 7.3 (≈ 6.93 µM) | 5.0 (≈ 4.75 µM) | 6.5 (≈ 6.17 µM) | >4.0 |
| C=C(C)C1CCC2(C(=O)O)CCC3(C)C(CCC4C5(C)CCC(OC(=O)c6cccc(C(F)(F)F)c6)C(C)(C)C5CCC43C)C12 (centres unmarked) [Derivative 939] | 1.4 (≈ 2.23 µM) | 5.7 (≈ 9.06 µM) | >10 | >10 | 4.0 (≈ 6.36 µM) | 2.7 (≈ 4.29 µM) | >4.0 |
| CC(C)C1CCC2(C(=O)O)CCC3(C)C(CCC4C5(C)CCC(NC(=O)CCl)C(C)(C)C5CCC43C)C12 (centres unmarked) [Derivative 1022] | 1.8 (≈ 3.37 µM) | 5.5 (≈ 10.3 µM) | >10 | >10 | 3.5 (≈ 6.55 µM) | 4.7 (≈ 8.8 µM) | 0.6 (≈ 1.12 µM) |
| CC(C)C1CCC2(C(=O)O)CCC3(C)C(CCC4C5(C)CCC(N=Cc6ccc(F)cc6F)C(C)(C)C5CCC43C)C12 (centres unmarked) [Derivative 1065] | 1.0 (≈ 1.72 µM) | 1.9 (≈ 3.27 µM) | 2.5 (≈ 4.3 µM) | 4.9 (≈ 8.42 µM) | 2.6 (≈ 4.47 µM) | 3.4 (≈ 5.84 µM) | 1.4 (≈ 2.41 µM) |
| C=C(C)C1CCC2(C(=O)O)CCC3(C)C(CCC4C5(C)CCC(OC(=O)c6ccccc6C(F)(F)F)C(C)(C)C5CCC43C)C12 (centres unmarked) [Derivative 942] | 0.5 (≈ 0.795 µM) | 2.2 (≈ 3.5 µM) | >10 | >10 | 10.0 (≈ 15.9 µM) | 4.0 (≈ 6.36 µM) | >4.0 |
| CC(C)C1CCC2(C(=O)O)CCC3(C)C(CCC4C5(C)CCC(=NNc6ccc(F)cc6)C(C)(C)C5CCC43C)C12 (centres unmarked) [Derivative 829] | 0.4 (≈ 0.708 µM) | 0.5 (≈ 0.885 µM) | >10 | 1.3 (≈ 2.3 µM) | >10 | >4 | 0.5 (≈ 0.885 µM) |
| C=C(C)C1CCC2(C(=O)O)CCC3(C)C(CCC4C5(C)CCC(OC(=O)c6cc(F)cc(F)c6)C(C)(C)C5CCC43C)C12 (centres unmarked) [Derivative 935] | 0.6 (≈ 1.01 µM) | 2.6 (≈ 4.36 µM) | 3.2 (≈ 5.36 µM) | >10 | >10 | 1.2 (≈ 2.01 µM) | – |
| CC(C)C1CCC2(C(=O)O)CCC3(C)C(CCC4C5(C)CCC(NNc6ccccc6)C(C)(C)C5CCC43C)C12 (centres unmarked) [Derivative 878] | 1.6 (≈ 2.92 µM) | 0.4 (≈ 0.729 µM) | – | 1.75 (≈ 3.19 µM) | 2.25 (≈ 4.1 µM) | 0.8 (≈ 1.46 µM) | 3.5 (≈ 6.38 µM) |
| CC(C)C1CCC2(C(=O)O)CCC3(C)C(CCC4C5(C)CCC(=NNC(=O)c6ccccc6)C(C)(C)C5CCC43C)C12 (centres unmarked) [Derivative 807] | 1.0 (≈ 1.74 µM) | – | >10 | – | 4.0 (≈ 6.96 µM) | <0.5 | 1.7 (≈ 2.96 µM) |
| C=C(C)C1CCC2(C(=O)O)CCC3(C)C(CCC4C5(C)CCC(OS(C)(=O)=O)C(C)(C)C5CCC43C)C12 (centres unmarked) [Derivative 751] | 0.65 (≈ 1.22 µM) | >4 | >10 | – | 7.0 (≈ 13.1 µM) | 5 (≈ 9.35 µM) | – |
| COc1ccc(NNC2CCC3(C)C(CCC4(C)C3CCC3C5C(C(C)C)CCC5(C(=O)O)CCC34C)C2(C)C)cc1 (centres unmarked) [Derivative 912] | 1.0 (≈ 1.73 µM) | 1.2 (≈ 2.07 µM) | 8.5 (≈ 14.7 µM) | 0.35 (≈ 0.605 µM) | 7.0 (≈ 12.1 µM) | >4 | – |
